# Measurements reported in the supplement of paper PMC6045584.
# ± gives the standard deviation of the averaged measurements.
# Compound: Oc1ccc(/C=C/c2cc(O)cc(O)c2)cc1 [RESVERATROL]
# Experiment: surviving fraction relative to DMSO-only wells; higher = less growth inhibition
# Conditions: 0.5 nM; exposure time: 5 days
# Summary of the method: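 Surviving fraction is CellTiter-Glo luminescence divided by the median of wells given DMSO only. For this, log-phase tumour cell lines went into 384-well plates at 250–500 cells per well and, 24 hours later, into five days of continuous inhibitor exposure at 0.5, 1, 5, 10, 50, 100, 500 and 1000 nM. Lines were screened three times and retained only if replicate Pearson r >0.7 and median Z' >0.3.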
row,Test System,surviving fraction
1,NOS1 BONE,1.08 ± 0.18
2,SUM149.B1*.S BREAST,1.05 ± 0.056
3,93VU HEADNECK,1.07 ± 0.11
4,LM7 BONE,1.05 ± 0.036
5,143B BONE,0.925 ± 0.14
6,SUM159 BREAST,1.04 ± 0.028
7,SUM149 BREAST,0.958 ± 0.048
8,MDAMB361 BREAST,0.839 ± 0.071
9,SAOS2 BONE,1.16 ± 0.15
10,ASKA SYNOVIAL,1.12 ± 0.019
11,HCC1395 BREAST,0.968 ± 0.099
12,HCC1954 BREAST,1.06 ± 0.055
13,CME SYNOVIAL,1.23 ± 0.043
14,VCAP PROSTATE,1.02 ± 0.18
15,YAMATO SYNOVIAL,1.21 ± 0.063
16,HCC202 BREAST,1 ± 0.23
17,HELA CERVIX,1.04 ± 0.034
18,SG27 HEADNECK,1.15 ± 0.14
19,CAL72 BONE,1.07 ± 0.057
20,MDAMB134 BREAST,0.894 ± 0.15

row,Test System,surviving fraction
1,C33A CERVIX,0.928 ± 0.045
2,SKBR3 BREAST,0.966 ± 0.15
3,MHM BONE,0.997 ± 0.013
4,VP229 BREAST,1.19 ± 0.11
5,SYO1 SYNOVIAL,0.975 ± 0.062
6,ZR751 BREAST,0.956 ± 0.028
7,KPD BONE,0.997 ± 0.054
8,SIHA CERVIX,1.02 ± 0.034
9,DU4475 BREAST,1 ± 0.13
10,BT549 BREAST,0.97 ± 0.081
11,COLO320DM LARGE INTESTINE,1.06 ± 0.14
12,T47D BREAST,1.06 ± 0.011
13,H23 LUNG,0.99 ± 0.019
14,NCIH441 LUNG,1.14 ± 0.074
15,HCT15 LARGE INTESTINE,0.982 ± 0.12
16,SCC90 HEADNECK,1.01 ± 0.012
17,MDAMB453 BREAST,1.07 ± 0.059
18,MG63 BONE,1.01 ± 0.038
19,A549 LUNG,1.03 ± 0.011
20,MDAMB468 BREAST,1.05 ± 0.11

# Same assay, conditions: 1 nM; exposure time: 5 days
row,Test System,surviving fraction
1,NOS1 BONE,0.975 ± 0.046
2,SUM149.B1*.S BREAST,1.09 ± 0.041
3,93VU HEADNECK,1.07 ± 0.095
4,LM7 BONE,1.05 ± 0.025
5,143B BONE,1.07 ± 0.016
6,SUM159 BREAST,1.1 ± 0.024
7,SUM149 BREAST,1.02 ± 0.07
8,MDAMB361 BREAST,0.871 ± 0.11
9,SAOS2 BONE,1.24 ± 0.047
10,ASKA SYNOVIAL,1.15 ± 0.089
11,HCC1395 BREAST,1.07 ± 0.075
12,HCC1954 BREAST,1.12 ± 0.012
13,CME SYNOVIAL,1.29 ± 0.045
14,VCAP PROSTATE,0.812 ± 0.12
15,YAMATO SYNOVIAL,1.28 ± 0.1
16,HCC202 BREAST,1.18 ± 0.11
17,HELA CERVIX,1.12 ± 0.036
18,SG27 HEADNECK,1.02 ± 0.069
19,CAL72 BONE,1.06 ± 0.084
20,MDAMB134 BREAST,1.02 ± 0.045

row,Test System,surviving fraction
1,C33A CERVIX,0.933 ± 0.052
2,SKBR3 BREAST,1.06 ± 0.048
3,MHM BONE,1.02 ± 0.015
4,VP229 BREAST,1.32 ± 0.14
5,SYO1 SYNOVIAL,0.996 ± 0.027
6,ZR751 BREAST,1.08 ± 0.069
7,KPD BONE,1.03 ± 0.032
8,SIHA CERVIX,1.05 ± 0.041
9,DU4475 BREAST,0.973 ± 0.051
10,BT549 BREAST,1.1 ± 0.17
11,COLO320DM LARGE INTESTINE,1 ± 0.062
12,T47D BREAST,1.1 ± 0.036
13,H23 LUNG,1.06 ± 0.051
14,NCIH441 LUNG,1.08 ± 0.12
15,HCT15 LARGE INTESTINE,1.03 ± 0.12
16,SCC90 HEADNECK,1.045 ± 0.0079
17,MDAMB453 BREAST,1.06 ± 0.06
18,MG63 BONE,1.06 ± 0.048
19,A549 LUNG,1.07 ± 0.043
20,MDAMB468 BREAST,1.13 ± 0.08

# Same assay, conditions: 5 nM; exposure time: 5 days
row,Test System,surviving fraction
1,NOS1 BONE,1.07 ± 0.028
2,SUM149.B1*.S BREAST,1.08 ± 0.051
3,93VU HEADNECK,1.11 ± 0.065
4,LM7 BONE,1.1 ± 0.045
5,143B BONE,1.01 ± 0.021
6,SUM159 BREAST,1.06 ± 0.03
7,SUM149 BREAST,1.04 ± 0.082
8,MDAMB361 BREAST,0.894 ± 0.089
9,SAOS2 BONE,1.24 ± 0.091
10,ASKA SYNOVIAL,1.22 ± 0.077
11,HCC1395 BREAST,1.1 ± 0.069
12,HCC1954 BREAST,1.21 ± 0.065
13,CME SYNOVIAL,1.4 ± 0.15
14,VCAP PROSTATE,0.994 ± 0.12
15,YAMATO SYNOVIAL,1.34 ± 0.064
16,HCC202 BREAST,1.14 ± 0.059
17,HELA CERVIX,1.06 ± 0.096
18,SG27 HEADNECK,1.03 ± 0.067
19,CAL72 BONE,1.05 ± 0.073
20,MDAMB134 BREAST,0.864 ± 0.11

row,Test System,surviving fraction
1,C33A CERVIX,0.956 ± 0.14
2,SKBR3 BREAST,1.1 ± 0.1
3,MHM BONE,1.03 ± 0.012
4,VP229 BREAST,1.19 ± 0.12
5,SYO1 SYNOVIAL,0.996 ± 0.04
6,ZR751 BREAST,0.95 ± 0.07
7,KPD BONE,1.08 ± 0.04
8,SIHA CERVIX,1.116 ± 0.011
9,DU4475 BREAST,0.967 ± 0.13
10,BT549 BREAST,0.942 ± 0.14
11,COLO320DM LARGE INTESTINE,1.07 ± 0.081
12,T47D BREAST,1.11 ± 0.049
13,H23 LUNG,1.02 ± 0.071
14,NCIH441 LUNG,1.1 ± 0.099
15,HCT15 LARGE INTESTINE,1.02 ± 0.1
16,SCC90 HEADNECK,1.12 ± 0.15
17,MDAMB453 BREAST,1.16 ± 0.022
18,MG63 BONE,1.07 ± 0.035
19,A549 LUNG,1.05 ± 0.024
20,MDAMB468 BREAST,1.06 ± 0.059

# Same assay, conditions: 10 nM; exposure time: 5 days
row,Test System,surviving fraction
1,NOS1 BONE,1.137 ± 0.0086
2,SUM149.B1*.S BREAST,1.1 ± 0.061
3,93VU HEADNECK,1.14 ± 0.078
4,LM7 BONE,1.18 ± 0.061
5,143B BONE,1.065 ± 0.0021
6,SUM159 BREAST,1.06 ± 0.021
7,SUM149 BREAST,0.958 ± 0.013
8,MDAMB361 BREAST,0.898 ± 0.079
9,SAOS2 BONE,1.23 ± 0.061
10,ASKA SYNOVIAL,1.25 ± 0.058
11,HCC1395 BREAST,1.28 ± 0.16
12,HCC1954 BREAST,1.39 ± 0.098
13,CME SYNOVIAL,1.44 ± 0.15
14,VCAP PROSTATE,1.02 ± 0.13
15,YAMATO SYNOVIAL,1.27 ± 0.18
16,HCC202 BREAST,1.06 ± 0.05
17,HELA CERVIX,1.08 ± 0.023
18,SG27 HEADNECK,1.06 ± 0.1
19,CAL72 BONE,1.05 ± 0.12
20,MDAMB134 BREAST,0.811 ± 0.016

row,Test System,surviving fraction
1,C33A CERVIX,0.998 ± 0.032
2,SKBR3 BREAST,1.07 ± 0.076
3,MHM BONE,1.03 ± 0.018
4,VP229 BREAST,1.2 ± 0.17
5,SYO1 SYNOVIAL,0.991 ± 0.044
6,ZR751 BREAST,1.01 ± 0.037
7,KPD BONE,1.09 ± 0.063
8,SIHA CERVIX,1.14 ± 0.066
9,DU4475 BREAST,0.964 ± 0.074
10,BT549 BREAST,1.09 ± 0.06
11,COLO320DM LARGE INTESTINE,1.07 ± 0.04
12,T47D BREAST,1.11 ± 0.017
13,H23 LUNG,1.05 ± 0.023
14,NCIH441 LUNG,1.18 ± 0.09
15,HCT15 LARGE INTESTINE,1.02 ± 0.093
16,SCC90 HEADNECK,1.08 ± 0.021
17,MDAMB453 BREAST,1.11 ± 0.039
18,MG63 BONE,1.15 ± 0.021
19,A549 LUNG,1.05 ± 0.026
20,MDAMB468 BREAST,1.07 ± 0.05
